According to patent publication US20240415805A1 (priority 2023, published 2024):
“Also recorded” adds a separate entry of the source.

What was measured:
Pg 33277 vesicles = settings: 30 μM; previously reported; cited from earlier work
HOKs = experiment: HOK cell viability (Promega CellTiter-Glo); type: cell-based, human; settings: 48 h
Procedure: Each bar represents the mean±standard deviation of luminescence levels representing relative the number of viable cells. Data are the mean of at least three independent experiments.
To examine potential cytotoxic effects of GM, HOKs were cultured in the presence of a range of GM from 0 to 1,000 nM for 48 h and the number of viable cells in the culture was determined using Promega™ CellTiter-Glo™.

Pg 33277 = experiment: Antibiotic protection assay: invasion of Pg cells into human primary oral keratinocytes; type: cell-based; settings: Porphyromonas gingivalis, 33277, Keratinocyte, read-out: Pg inhibited from entry into HOKs
Procedure: Inhibition of Pg cells invasion by GM. The ability of Pg to invade oral epithelial cells was determined using an antibiotic protection assay as described^28. Human primary oral keratinocytes (HOKs, 5×10^4 cells, ScienCell® Research Laboratories) were seeded in a 24-well plate. After incubating with Pg 33277 for 1 h, HOKs were continually cultured for another 4 h in the presence of antibiotics (gentamicin (300 μg/ml) and metronidazole (200 μg/ml)) to eliminate extracellular bacteria. The HOKs were then lysed, and the internalized bacteria were plated on TSB blood agar plates. The plates were incubated anaerobically at 37° C. for 7 days, and CFUs of Pg were enumerated. […] In the presence of 40 nM GM, more than 95% of Pg were inhibited from entry into HOKs. In addition, the role of GM in Pg re-entry was tested. After exposure to Pg cells for 1 h and then antibiotic treatment for 4 h, HOKs were continuously cultured for 24 h in the presence of GM (20 nM), antibiotics, or GM and antibiotics. Intracellular Pg was determined as described^28. As expected, intracellular Pg cells moved in and out of the HOKs.

SMILES	Pg vesicle invasion (Pg 33277 vesicles)	cell viability of HOKs (HOKs; GM 0 to 1,000 nM, as high as luM)	highest concentration without viability effect relative to the concentration that inhibits Pg invasion (HOKs; HOKs)	inhibition at 0.04 µM (Pg 33277)
O=C(N/N=C/c1ccc(O)c(O)c1)c1cc2ccccc2cc1O [dynasore]	inhibited the vesicle invasion			
C=C(C)[C@@]12C[C@@H](COC(=O)c3ccccc3)[C@@]34OC5(O[C@@H]1[C@@H]3[C@@H]1O[C@]1(CO)[C@@H](O)[C@@]1(O)[C@H]4[C@H]([C@H](C)[C@@H]1OC(=O)c1ccccc1)[C@H](C)CCCCCC[C@H]5O)O2 [GM, gnidimacrin]		does not affect host cell viability; also recorded: no impact	approximately 50 times	> 95%
